The test system of series [1] is cellular microtubules. The settings on record: read-out: Cellular microtubule depolymerization EC50; lead compounds; cited from earlier work.
The test system of series [2] is tubulin. The series is described as follows: Inhibition of [3H]colchicine binding to tubulin.
The subject of series [3] is tubulin. The settings on record: lead compounds, cited from earlier work.
Series [4] relates to cellular microtubules. Kind of series: Cellular microtubule depolymerization. The settings on record: 5-methyl vs 5-desmethyl compound. In kind it is cell-based.
The next series has as its system MDA-MB-435. Kind of series: Antiproliferative effects in MDA-MB-435. It is filed as cell-based, human. The settings on record: 5-methyl vs 5-desmethyl compound.
In series [5] the test system is tubulin. Kind of series: Inhibition of tubulin assembly. It is filed as biochemical.
The nature of series [6]: Animal weight and MTD in xenograft study.
A further series concerns NCI 60 cell line panel. Kind of series: NCI-60 panel, overall. It is filed as cell-based. The settings on record: Homo sapiens, read-out: GI50 against most/many tumor cell lines.
Series [7] deals with MCF-7 TUBB3 (βIII-tubulin overexpressing) tumors. The series is described as follows: MCF-7 TUBB3 orthotopic xenograft. In kind it is in vivo, mouse. The settings on record: athymic female mice; 9 at 30 mg/kg two times weekly, paclitaxel 10 mg/kg/week.

Data on nine compounds can be found in publication PMC8113149 (Bioorganic & medicinal chemistry letters, 2021).

“Also recorded” adds a separate entry of the source. Like-named read-outs stand apart in the source and are kept apart here.

In the case of `COc1ccc(/C=C\c2cc(OC)c(OC)c(OC)c2)cc1O` [CA-4, combretastatin A-4], the EC50 in the series with cellular microtubules [1] was 0.0098 µM. Further, the “Inhibition of colchicine binding, % inhibition ± SD” value in the series on tubulin [2] (0.5 μM inhibitor) and in the series with tubulin [3] (0.5 μM inhibitor) was 84 ± 3% each time.
As for `COc1ccc(Nc2nc(C)nc3cc[nH]c23)cc1` [Compound 1], the concentration for a half-maximal effect (EC50) with cellular microtubules [1] was above 10 µM. For the same compound, the “Inhibition of colchicine binding, % inhibition ± SD” value with tubulin [3] (5 μM inhibitor) was 0%.
Take `COc1ccc(N(C)c2nc(C)nc3cc[nH]c23)cc1` [Compound 2]: in the series with cellular microtubules [1], the EC50 was 1.2 µM.
As to `COc1ccc(N(C)c2nc(C)nc3ccn(C)c23)cc1` [Compound 3], in the series with cellular microtubules [1], the EC50 is 0.0074 µM. Besides, the “Fold more potent in cellular microtubule depolymerization than 5-desmethyl 2” value in the series on cellular microtubules [4] was determined as 160 fold. The “Fold more potent in antiproliferative effects than 5-desmethyl 2” value with MDA-MB-435 turned out to be 22 fold.
Consider `COc1ccc(N(C)c2nc(C)nc3c(Cc4ccccc4)cn(C)c23)cc1` [Compound 5], for which, in the series on tubulin [5] (5 vs 4, 7 vs 6), the “Fold more potent in inhibiting tubulin assembly than 5-desmethyl compound” value was determined as 43 fold.
As for `COc1ccc(N(C)c2nc(Cl)nc3cnn(C)c23)cc1` [Compound 9], in series [6] (percent weight change at day 41 over starting weight), the Animal weight change result is “no significant weight loss”. The GI50 in the series with NCI 60 cell line panel is at most 0.01 µM. The “Primary tumor growth / tumor volume” value in [7] is given as “decreased primary tumor growth”.
Turning to `COc1ccc(Nc2nc(Cl)nc3cnn(C)c23)cc1` [Compound 10], the “Inhibition of [3H]colchicine binding, in words” value in the series on tubulin [2] was “completely inactive”. Also, the “Inhibition of tubulin assembly, in words” value in the series with tubulin [5] is given as “did not inhibit tubulin assembly; also recorded: no effect”. Also, the concentration for half-maximal inhibition (IC50) in the series on tubulin [5] (read-out: Inhibition of tubulin assembly IC50 ± SD) was above 20 µM.
For the compound `CSc1ccc(N(C)c2nc(Cl)nc3cnn(C)c23)cc1` [Compound 15], in the series with tubulin [2], the “Inhibition of [3H]colchicine binding, in words” value is listed as “equipotent to 9”.
With `CC(=O)O[C@H]1C(=O)[C@@]2(C)[C@H]([C@H](OC(=O)c3ccccc3)[C@]3(O)C[C@H](OC(=O)[C@H](O)[C@@H](NC(=O)c4ccccc4)c4ccccc4)C(C)=C1C3(C)C)[C@]1(OC(C)=O)CO[C@@H]1C[C@@H]2O` [Paclitaxel, paclitaxel], the “Maximally tolerated dose (MTD)” value in series [6] (mice) worked out at 10 mg/kg/week.

A word on the EC50: it is the concentration at which the effect is half-maximal. Broadly, the IC50 is the concentration that gives 50% inhibition.
